PubChem BioAssay AID1963980 (Molecular Pharmacology Branch, DTP, NCI, 2024)
pIC50: −log10 of the molar value.

Test system: 475296-252-R-J1-PDC spheroid viability
Assay: Anticancer human tumor 475296-252-R-J1-PDC patient-derived rectal carcinoma cell line growth inhibition [PI3K]
Details: spheroids with HUVEC and MSC; for pIC50: curve of first compound; for viability, T/C: stronger effect = lower value
Method in brief: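 Three cell types, namely tumor cells, endothelial cells and mesenchymal stem cells, formed each spheroid. Combinations with four PI3K inhibitors were screened at clinically achievable concentrations decreasing by half-log, and spheroid viability was recorded.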
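Further: spheroids exposed to agents for seven days before readout.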

CNC(=O)c1ccc(N2C(=S)N(c3ccc(C#N)c(C(F)(F)F)c3)C(=O)C2(C)C)cc1F + CC(Nc1ncnc2nc[nH]c12)c1cc2cccc(Cl)c2c(=O)n1-c1ccccc1
pIC50 (second compound 0.0316 µM): < 5.00 | pIC50 (second compound 0.1 µM): < 5.00 | pIC50 (second compound 0.316 µM): < 5.00 | pIC50 (second compound 1 µM): < 5.00 | pIC50 (second compound 3.16 µM): < 5.00 | pIC50 (second compound 10 µM): < 5.00 | viability, T/C (second compound 0.0316 µM, first compound 0.0316 µM): 90.9% | viability, T/C (second compound 0.0316 µM, first compound 0.1 µM): 92.1% | viability, T/C (second compound 0.0316 µM, first compound 0.316 µM): 107% | viability, T/C (second compound 0.0316 µM, first compound 1 µM): 92.6% | viability, T/C (second compound 0.0316 µM, first compound 3.16 µM): 101% | viability, T/C (second compound 0.0316 µM, first compound 10 µM): 85.7% | viability, T/C (second compound 0.1 µM, first compound 0.0316 µM): 97.6% | viability, T/C (second compound 0.1 µM, first compound 0.1 µM): 99.6% | viability, T/C (second compound 0.1 µM, first compound 0.316 µM): 93.4% | viability, T/C (second compound 0.1 µM, first compound 1 µM): 109% | viability, T/C (second compound 0.1 µM, first compound 3.16 µM): 109% | viability, T/C (second compound 0.1 µM, first compound 10 µM): 106% | viability, T/C (second compound 0.316 µM, first compound 0.0316 µM): 94.9% | viability, T/C (second compound 0.316 µM, first compound 0.1 µM): 104% | viability, T/C (second compound 0.316 µM, first compound 0.316 µM): 106% | viability, T/C (second compound 0.316 µM, first compound 1 µM): 98.4% | viability, T/C (second compound 0.316 µM, first compound 3.16 µM): 107% | viability, T/C (second compound 0.316 µM, first compound 10 µM): 96.2% | viability, T/C (second compound 1 µM, first compound 0.0316 µM): 97% | viability, T/C (second compound 1 µM, first compound 0.1 µM): 92.1% | viability, T/C (second compound 1 µM, first compound 0.316 µM): 102% | viability, T/C (second compound 1 µM, first compound 1 µM): 92.4% | viability, T/C (second compound 1 µM, first compound 3.16 µM): 99.2% | viability, T/C (second compound 1 µM, first compound 10 µM): 99.7% | viability, T/C (second compound 3.16 µM, first compound 0.0316 µM): 89.4% | viability, T/C (second compound 3.16 µM, first compound 0.1 µM): 114% | viability, T/C (second compound 3.16 µM, first compound 0.316 µM): 94% | viability, T/C (second compound 3.16 µM, first compound 1 µM): 103% | viability, T/C (second compound 3.16 µM, first compound 3.16 µM): 101% | viability, T/C (second compound 3.16 µM, first compound 10 µM): 93.2% | viability, T/C (second compound 10 µM, first compound 0.0316 µM): 103% | viability, T/C (second compound 10 µM, first compound 0.1 µM): 92% | viability, T/C (second compound 10 µM, first compound 0.316 µM): 93% | viability, T/C (second compound 10 µM, first compound 1 µM): 96.6% | viability, T/C (second compound 10 µM, first compound 3.16 µM): 107% | viability, T/C (second compound 10 µM, first compound 10 µM): 109%

Cn1cnc2c(F)c(Nc3ccc(Br)cc3Cl)c(C(=O)NOCCO)cc21 + CC(Nc1ncnc2nc[nH]c12)c1cc2cccc(Cl)c2c(=O)n1-c1ccccc1
pIC50 (second compound 0.0316 µM): < 5.52 | pIC50 (second compound 0.1 µM): < 5.52 | pIC50 (second compound 0.316 µM): < 5.52 | pIC50 (second compound 1 µM): 5.54 | pIC50 (second compound 3.16 µM): 5.67 | pIC50 (second compound 10 µM): 5.92 | viability, T/C (second compound 0.0316 µM, first compound 0.00949 µM): 84.4% | viability, T/C (second compound 0.0316 µM, first compound 0.03 µM): 84.9% | viability, T/C (second compound 0.0316 µM, first compound 0.0949 µM): 81.6% | viability, T/C (second compound 0.0316 µM, first compound 0.3 µM): 70.5% | viability, T/C (second compound 0.0316 µM, first compound 0.949 µM): 63.1% | viability, T/C (second compound 0.0316 µM, first compound 3 µM): 53.9% | viability, T/C (second compound 0.1 µM, first compound 0.00949 µM): 95.8% | viability, T/C (second compound 0.1 µM, first compound 0.03 µM): 85.5% | viability, T/C (second compound 0.1 µM, first compound 0.0949 µM): 93.3% | viability, T/C (second compound 0.1 µM, first compound 0.3 µM): 73.5% | viability, T/C (second compound 0.1 µM, first compound 0.949 µM): 66.6% | viability, T/C (second compound 0.1 µM, first compound 3 µM): 55.7% | viability, T/C (second compound 0.316 µM, first compound 0.00949 µM): 90.7% | viability, T/C (second compound 0.316 µM, first compound 0.03 µM): 92.9% | viability, T/C (second compound 0.316 µM, first compound 0.0949 µM): 86.5% | viability, T/C (second compound 0.316 µM, first compound 0.3 µM): 74.8% | viability, T/C (second compound 0.316 µM, first compound 0.949 µM): 76.3% | viability, T/C (second compound 0.316 µM, first compound 3 µM): 51.5% | viability, T/C (second compound 1 µM, first compound 0.00949 µM): 95.7% | viability, T/C (second compound 1 µM, first compound 0.03 µM): 95.7% | viability, T/C (second compound 1 µM, first compound 0.0949 µM): 81.4% | viability, T/C (second compound 1 µM, first compound 0.3 µM): 68.2% | viability, T/C (second compound 1 µM, first compound 0.949 µM): 67.3% | viability, T/C (second compound 1 µM, first compound 3 µM): 48.1% | viability, T/C (second compound 3.16 µM, first compound 0.00949 µM): 94.2% | viability, T/C (second compound 3.16 µM, first compound 0.03 µM): 92.9% | viability, T/C (second compound 3.16 µM, first compound 0.0949 µM): 76% | viability, T/C (second compound 3.16 µM, first compound 0.3 µM): 68.3% | viability, T/C (second compound 3.16 µM, first compound 0.949 µM): 62.5% | viability, T/C (second compound 3.16 µM, first compound 3 µM): 44.9% | viability, T/C (second compound 10 µM, first compound 0.00949 µM): 100% | viability, T/C (second compound 10 µM, first compound 0.03 µM): 95% | viability, T/C (second compound 10 µM, first compound 0.0949 µM): 73.2% | viability, T/C (second compound 10 µM, first compound 0.3 µM): 59.9% | viability, T/C (second compound 10 µM, first compound 0.949 µM): 59.6% | viability, T/C (second compound 10 µM, first compound 3 µM): 38.3%
